According to ChEMBL document CHEMBL3987221, “The Australian National University Dept Of Immunology Pathogen Box Compounds Screened” (2018):
Calls of active or inactive are those of the source. The rule behind the calls is not given here.

Key:
[1] = molecular target: T1, Ferrochelatase, mitochondrial (Homo sapiens) (UniProt P22830); conditions: at 10 µM
T1 sequence (whole entry): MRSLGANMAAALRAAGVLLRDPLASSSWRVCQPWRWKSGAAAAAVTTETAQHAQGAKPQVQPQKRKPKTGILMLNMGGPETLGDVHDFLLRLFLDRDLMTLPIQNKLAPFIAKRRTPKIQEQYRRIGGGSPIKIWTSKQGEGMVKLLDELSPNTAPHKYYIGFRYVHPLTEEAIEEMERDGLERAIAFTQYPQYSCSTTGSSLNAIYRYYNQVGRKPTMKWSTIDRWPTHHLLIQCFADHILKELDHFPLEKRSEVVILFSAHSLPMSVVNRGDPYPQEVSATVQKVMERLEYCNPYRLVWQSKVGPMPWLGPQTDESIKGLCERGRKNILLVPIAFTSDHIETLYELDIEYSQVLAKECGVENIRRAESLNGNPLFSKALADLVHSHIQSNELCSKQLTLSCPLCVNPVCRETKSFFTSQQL
Description: Compound was evaluated for the inhibition of human FECH at 10uM

[2] = molecular target: T2, Porphobilinogen deaminase (Homo sapiens) (UniProt P08397); conditions: at 100 µM
T2 sequence (whole entry): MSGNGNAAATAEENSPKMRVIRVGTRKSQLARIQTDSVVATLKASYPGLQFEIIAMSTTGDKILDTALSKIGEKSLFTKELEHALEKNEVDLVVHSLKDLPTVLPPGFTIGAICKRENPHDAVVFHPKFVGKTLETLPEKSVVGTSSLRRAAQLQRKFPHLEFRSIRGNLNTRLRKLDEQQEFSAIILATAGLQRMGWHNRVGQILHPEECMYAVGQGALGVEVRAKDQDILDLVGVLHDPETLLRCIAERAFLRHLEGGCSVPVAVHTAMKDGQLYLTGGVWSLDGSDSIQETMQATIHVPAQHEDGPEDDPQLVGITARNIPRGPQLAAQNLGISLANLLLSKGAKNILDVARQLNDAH
Description: Compound was evaluated for the inhibition of human HMBS at 100uM

SMILES: O=C(Nc1nnc(S)s1)c1cc(Br)ccc1Cl
- inhibition [1]: inactive
- inhibition [2]: inactive

SMILES: CN1CCC(NCc2cccc(-c3ccc(S(=O)(=O)NCc4ccccc4)cc3)c2)CC1
- inhibition [1]: inactive
- inhibition [2]: inactive

SMILES: O=C(C1CCN(c2nnc(-n3cccc3)s2)CC1)N1CCC(Cc2ccccc2)CC1
- inhibition [1]: inactive
- inhibition [2]: inactive

SMILES: Cc1nc(-c2ccccn2)nc(N(C)CCc2ccccc2)c1Cl
- inhibition [1]: inactive
- inhibition [2]: inactive

SMILES: COc1cccc(NC(=O)c2c(NC(=O)c3cccnc3)sc3c2CCC3)c1
- inhibition [1]: inactive
- inhibition [2]: inactive

SMILES: O=C(Nc1ccc(N2CCNCC2)cc1)c1ccn2ncc(-c3cccc(Cl)c3)c2n1
- inhibition [1]: inactive
- inhibition [2]: inactive

SMILES: FC(F)(F)c1nnc2ccc(Cl)nn12
- inhibition [1]: inactive
- inhibition [2]: inactive

SMILES: CCOc1ccccc1NC(C)C(=O)Nc1cc(C(F)(F)F)ccc1N1CCOCC1 (centres undefined)
- inhibition [1]: inactive
- inhibition [2]: inactive

SMILES: CCc1ccc([C@@H]2C[C@H](C(F)(F)F)n3ncc(C(=O)NCc4ccc(OC)cc4)c3N2)cc1
- inhibition [1]: inactive
- inhibition [2]: inactive

SMILES: CS(=O)(=O)Cc1nc2ccccc2oc1=O
- inhibition [1]: inactive
- inhibition [2]: inactive

SMILES: Cn1c(=O)c2c(S(C)(=O)=O)snc2n(C)c1=O
- inhibition [1]: inactive
- inhibition [2]: inactive

SMILES: Brc1cncc(-c2cc(NCCCn3ccnc3)nc(-c3ccccc3)n2)c1
- inhibition [1]: inactive
- inhibition [2]: inactive

SMILES: NS(=O)(=O)c1cccc(-c2ccc3ncc(N4CCOCC4)nc3c2)c1
- inhibition [1]: inactive
- inhibition [2]: inactive

SMILES: COc1ccccc1C(C)NCC(=O)Nc1cc(C(F)(F)F)ccc1Cl (centres undefined)
- inhibition [1]: inactive
- inhibition [2]: inactive

SMILES: O=C(Nc1c(O)cccc1-c1nc2c(C(=O)O)cccc2o1)c1cc(-c2ccccc2)on1
- inhibition [1]: inactive
- inhibition [2]: inactive

SMILES: CC(=O)NC[C@H]1CN(c2ccc(N3CCSCC3)c(F)c2)C(=O)O1
- inhibition [1]: inactive
- inhibition [2]: inactive

SMILES: O=C1[C@@H](Oc2ccccc2)[C@@H](c2ccc(Cl)cc2)N1CCn1cnc2c(NCc3ccccc3)ncnc21
- inhibition [1]: inactive
- inhibition [2]: inactive

SMILES: CC[C@@H]([C@H](C)O)n1ncn(-c2ccc(N3CCN(c4ccc(OC[C@@H]5CO[C@@](Cn6cncn6)(c6ccc(F)cc6F)C5)cc4)CC3)cc2)c1=O
- inhibition [1]: inactive
- inhibition [2]: inactive

SMILES: Cc1cc(C2=NOC(c3cc(Cl)c(F)c(Cl)c3)(C(F)(F)F)C2)ccc1C(=O)NCc1ccc2c(c1)C(C)(C)OB2O (centres undefined)
- inhibition [1]: inactive
- inhibition [2]: inactive

SMILES: COc1cccc(-c2cc3c(Nc4cccnc4)nccc3[nH]2)c1
- inhibition [1]: inactive
- inhibition [2]: inactive

SMILES: CC(C)(C)C(O)C(Oc1ccc(-c2ccccc2)cc1)n1cncn1 (centres undefined)
- inhibition [1]: inactive
- inhibition [2]: inactive

SMILES: CC(=O)Nc1ccc(NC(=O)c2cc(-c3cc(Cl)ccc3O)n[nH]2)cc1
- inhibition [1]: inactive
- inhibition [2]: inactive

SMILES: CCc1nc2ccc(C(=O)NCc3ccc4c(c3)OCO4)cn2c1N(C)Cc1cccs1
- inhibition [1]: inactive
- inhibition [2]: inactive

SMILES: CN1CCC(c2cc(-c3ccncc3)c(-c3ccc(F)cc3)[nH]2)CC1
- inhibition [1]: inactive
- inhibition [2]: inactive

SMILES: O=C(C1CCN(c2nnnn2-c2ccccc2)CC1)N1CCc2ccccc2C1
- inhibition [1]: inactive
- inhibition [2]: inactive

SMILES: O=C1O[C@@H](COc2ccon2)CN1c1cc(F)c(C2=CCN(Cc3ccccc3)CC2)c(F)c1
- inhibition [1]: inactive
- inhibition [2]: inactive

SMILES: CCNC(=O)C(C)Nc1nc(-c2cccnc2)nc2sc(C)c(C)c12 (centres undefined)
- inhibition [1]: inactive
- inhibition [2]: inactive

SMILES: CC(=O)Oc1ccccc1C(=O)Nc1ncc([N+](=O)[O-])s1
- inhibition [1]: inactive
- inhibition [2]: inactive

SMILES: O=C(Nc1cnc2ccccc2c1)c1cccc(-n2cnnn2)c1
- inhibition [1]: inactive
- inhibition [2]: inactive

SMILES: O=C(Nc1ccnc(-c2cccnc2)n1)c1cc(C(F)(F)F)cc(C(F)(F)F)c1
- inhibition [1]: inactive
- inhibition [2]: inactive

SMILES: Brc1c(-c2ccc3c(c2)OCO3)nc2ncccn12
- inhibition [1]: inactive
- inhibition [2]: inactive

SMILES: C[C@H]1c2cccc(O)c2C(=O)C2=C(O)[C@]3(O)C(=O)C(C(N)=O)=C(O)[C@@H](N(C)C)[C@@H]3[C@@H](O)[C@@H]21
- inhibition [1]: inactive
- inhibition [2]: inactive

SMILES: C[C@H]1COc2c(N3CCN(C)CC3)c(F)cc3c(=O)c(C(=O)O)cn1c23
- inhibition [1]: inactive
- inhibition [2]: inactive

SMILES: Cc1cc(O)nc(-n2nc(C)cc2C)n1
- inhibition [1]: inactive
- inhibition [2]: inactive

SMILES: Oc1c(I)cc(I)c2cccnc12
- inhibition [1]: inactive
- inhibition [2]: inactive

SMILES: COc1nc2ccc(Br)cc2cc1[C@@H](c1ccccc1)[C@@](O)(CCN(C)C)c1cccc2ccccc12
- inhibition [1]: inactive
- inhibition [2]: inactive

SMILES: CNc1cc(C)nc(C2CN(C(=O)c3n[nH]c4ccccc34)CCO2)c1 (centres undefined)
- inhibition [1]: inactive
- inhibition [2]: inactive

SMILES: COc1ccc(-c2cnc3ccc(NCc4ccc(S(N)(=O)=O)cc4)nn23)cn1
- inhibition [1]: inactive
- inhibition [2]: inactive

SMILES: O=C(OCc1ccccc1)N1CCC(c2cc(-c3ccncc3)c(-c3ccc(F)cc3)[nH]2)CC1
- inhibition [1]: inactive
- inhibition [2]: inactive

SMILES: Cc1[nH]c2cc(F)cc(F)c2c(=O)c1-c1ccc(Oc2ccc(OC(F)(F)F)cc2)cc1
- inhibition [1]: inactive
- inhibition [2]: inactive

SMILES: CNC1C(OC2C(OC3C(O)C(O)C(N=C(N)N)C(O)C3N=C(N)N)OC(C)C2(O)C=O)OC(CO)C(O)C1O (centres undefined)
- inhibition [1]: inactive
- inhibition [2]: inactive

SMILES: Clc1ccc(Cl)c(CO[C@H]2CCCC[C@@H]2n2ccnc2)c1
- inhibition [1]: inactive
- inhibition [2]: inactive

SMILES: Cc1cccc(NC(=O)c2cc(S(=O)(=O)N(C)c3ccc(F)cc3)ccc2Cl)n1
- inhibition [1]: inactive
- inhibition [2]: inactive

SMILES: Cc1ncc(-c2ccnc(Nc3ccc(S(C)(=O)=O)cc3)n2)n1C(C)C
- inhibition [1]: inactive
- inhibition [2]: inactive

SMILES: CN(C)CCNC(=O)N1CCCN(c2ncnc3cc(-c4ccccc4)sc23)CC1
- inhibition [1]: inactive
- inhibition [2]: inactive

SMILES: O=S(=O)(c1ccc(Cl)cc1)N1CCN(C(=S)NCc2ccco2)CC1
- inhibition [1]: inactive
- inhibition [2]: inactive

SMILES: Cc1ccccc1C(=O)N1N=C(Nc2ccccc2)SC1(C)C
- inhibition [1]: inactive
- inhibition [2]: inactive

SMILES: OCCc1ccc(Nc2nccc(-c3nnc4ccccn34)n2)cc1
- inhibition [1]: inactive
- inhibition [2]: inactive

SMILES: O=C(c1ccc(F)cc1)N(CCNc1ccccc1)c1ccccc1
- inhibition [1]: inactive
- inhibition [2]: inactive

SMILES: COc1cccc(OC)c1C(=O)Nc1ccc(Cl)c(-c2nc3ccccc3s2)c1
- inhibition [1]: inactive
- inhibition [2]: inactive

SMILES: Cc1cc(C(=O)Nc2cnn(Cc3ccc(Cl)cc3Cl)c2)no1
- inhibition [1]: inactive
- inhibition [2]: inactive

SMILES: CCc1nc2ccc(Cl)cn2c1C(=O)NCc1ccc(N2CCC(c3ccc(OC(F)(F)F)cc3)CC2)cc1
- inhibition [1]: inactive
- inhibition [2]: inactive

SMILES: Nc1c2c(nc3sc4c(c13)CCCC4)CCCC2
- inhibition [1]: inactive
- inhibition [2]: inactive

SMILES: Cn1ncc2c(N3CCOCC3)nc(NCCc3c[nH]c4ccccc34)nc21
- inhibition [1]: inactive
- inhibition [2]: inactive

SMILES: Cc1ccc2[nH]c3c(NCCN(C)C)ncnc3c2c1
- inhibition [1]: inactive
- inhibition [2]: inactive

SMILES: O=C(Nc1nc(-c2ccccn2)cs1)C1CC1c1ccccc1F (centres undefined)
- inhibition [1]: inactive
- inhibition [2]: inactive

SMILES: COc1cc(C2=NCCN2)ccc1-c1cn(-c2cccc(C3=NCCN3)c2)nn1
- inhibition [1]: inactive
- inhibition [2]: inactive

SMILES: OCc1ccc(-c2cncc(Nc3cccc(Cl)c3)c2)cc1
- inhibition [1]: inactive
- inhibition [2]: inactive

SMILES: Cc1cccc(C(=O)Nc2ccnc(N(C)C3CCN(CC(C)C)CC3)c2)c1
- inhibition [1]: inactive
- inhibition [2]: inactive

SMILES: COc1cc2ncnc(NC3CCN(Cc4ccccc4)CC3)c2cc1OC
- inhibition [1]: inactive
- inhibition [2]: inactive

SMILES: O=C(NC1=NCCS1)c1sc2cc(F)ccc2c1Cl
- inhibition [1]: inactive
- inhibition [2]: inactive

SMILES: CC(=O)NCC1CN(c2ccc(-c3ccc(CO)cc3)c(F)c2)C(=O)O1 (centres undefined)
- inhibition [1]: inactive
- inhibition [2]: inactive

SMILES: Cc1nc2ccccn2c1C(=O)NCc1ccc(Cl)cc1
- inhibition [1]: inactive
- inhibition [2]: inactive

SMILES: CO/C=C(/C(=O)OC)c1ccccc1Oc1cc(Oc2ccccc2C#N)ncn1
- inhibition [1]: inactive
- inhibition [2]: inactive

SMILES: FC(F)(F)c1cc(NCCc2ccccc2)nc(-c2ccccn2)n1
- inhibition [2]: inactive
